Measurements from ChEMBL document CHEMBL1138105, “Highly potent and selective zwitterionic agonists of the delta-opioid receptor. Part 1” (Bioorg Med Chem Lett, 2006).
Activity calls are given as the source filed them. No cut-off for these calls is given here.

Experiments:
[1] = target: Delta-type opioid receptor (Mus musculus, UniProt P32300)
Description: Agonist activity at delta opioid receptor in mouse vas deferens

[2] = target: Kappa-type opioid receptor (Cavia porcellus, UniProt P41144); assay: Agonist activity at kappa opioid receptor in myenteric plexus muscle from guinea pig; type: functional
Sequence of Kappa-type opioid receptor (P41144 whole entry): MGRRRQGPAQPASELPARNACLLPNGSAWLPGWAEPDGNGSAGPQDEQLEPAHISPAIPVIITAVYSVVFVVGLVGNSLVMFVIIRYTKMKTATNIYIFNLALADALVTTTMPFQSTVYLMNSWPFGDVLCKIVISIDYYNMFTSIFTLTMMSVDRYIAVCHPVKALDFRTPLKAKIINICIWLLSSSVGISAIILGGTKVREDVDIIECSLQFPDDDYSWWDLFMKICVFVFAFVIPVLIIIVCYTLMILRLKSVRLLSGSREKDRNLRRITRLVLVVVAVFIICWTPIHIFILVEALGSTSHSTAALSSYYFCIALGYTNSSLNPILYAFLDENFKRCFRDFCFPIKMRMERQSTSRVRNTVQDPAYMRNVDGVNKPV

[3] = Distribution coefficient of the compound, log D at pH 7.4; type: physicochemical; conditions: octanol/water
Mu-type opioid receptor = Mu-type opioid receptor (Cavia porcellus, UniProt P97266); assay: Agonist activity at mu opioid receptor in myenteric plexus muscle from guinea pig; type: functional
Sequence of Mu-type opioid receptor (P97266 whole entry): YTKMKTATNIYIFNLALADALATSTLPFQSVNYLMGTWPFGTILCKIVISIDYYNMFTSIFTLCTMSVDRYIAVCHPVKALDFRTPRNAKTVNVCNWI

[4] = Volume of distribution in dog; type: ADME, organism-based, Canis lupus familiaris; conditions: in vivo, read-out: Vdss
[5] = target: Delta-type opioid receptor (Homo sapiens, UniProt P41143); assay: Binding affinity at human delta opioid receptor expressed in CHO cells; type: cell-based, Cricetulus griseus
Sequence of Delta-type opioid receptor (Homo sapiens, UniProt P41143) (P41143 whole entry): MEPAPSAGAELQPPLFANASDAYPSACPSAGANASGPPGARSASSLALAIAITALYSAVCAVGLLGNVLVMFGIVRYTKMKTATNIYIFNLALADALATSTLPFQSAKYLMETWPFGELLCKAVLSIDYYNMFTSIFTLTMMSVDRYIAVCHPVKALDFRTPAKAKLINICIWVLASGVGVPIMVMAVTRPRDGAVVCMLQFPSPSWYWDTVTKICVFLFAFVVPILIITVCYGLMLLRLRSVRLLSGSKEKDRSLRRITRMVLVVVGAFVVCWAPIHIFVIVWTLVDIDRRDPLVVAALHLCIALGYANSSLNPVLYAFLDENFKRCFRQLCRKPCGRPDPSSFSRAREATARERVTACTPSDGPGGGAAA

[6] = Plasma clearance in dog; type: ADME, organism-based, Canis lupus familiaris
[7] = Oral bioavailability in dog; type: ADME, organism-based, Canis lupus familiaris; conditions: in vivo
Mus musculus [8] = assay: Effect on locomotor activity in mouse hyper locomotion model at 100 ug/kg, iv; type: functional, organism-based
Mus musculus [9] = assay: Effect on locomotor activity in mouse hyper locomotion model at 1000 ug/kg, iv; type: functional, organism-based
Mus musculus [10] = assay: Effect on locomotor activity in mouse hyper locomotion model at 400 ug/kg, iv; type: functional, organism-based

Sequence of Delta-type opioid receptor (Mus musculus, UniProt P32300) (P32300 whole entry): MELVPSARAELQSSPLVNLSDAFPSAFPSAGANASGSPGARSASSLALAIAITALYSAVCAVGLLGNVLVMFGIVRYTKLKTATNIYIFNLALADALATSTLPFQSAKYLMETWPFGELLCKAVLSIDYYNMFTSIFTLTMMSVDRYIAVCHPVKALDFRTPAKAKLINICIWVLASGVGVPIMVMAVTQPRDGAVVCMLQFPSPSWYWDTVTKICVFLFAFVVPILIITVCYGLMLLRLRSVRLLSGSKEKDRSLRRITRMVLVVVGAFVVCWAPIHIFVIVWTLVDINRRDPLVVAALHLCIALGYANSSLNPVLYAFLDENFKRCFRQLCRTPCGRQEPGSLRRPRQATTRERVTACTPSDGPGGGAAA

Row | Structure (SMILES) | IC50 [1] [nM] | IC50 [2] [nM] | logD [3] | IC50 (Mu-type opioid receptor) [nM] | further results
1 | C[C@@H]1CN([C@@H](c2cccc(F)c2)c2ccc3c(c2)CN(CCC(=O)O)C3)[C@@H](C)CN1Cc1ccccc1 | 25.1 | – | – | – | –
2 | C[C@@H]1CN([C@@H](c2cccc(O)c2)c2ccc3c(c2)CN(Cc2ccccc2C(=O)O)C3)[C@@H](C)CN1Cc1ccccc1 | 3.16 | – | – | – | –
3 | COc1cccc([C@@H](c2ccc3c(c2)CN(CCC(=O)O)CC3)N2C[C@@H](C)N(Cc3ccccc3)C[C@@H]2C)c1 | 12.6 | 1000 | 2.3 | > 10000 | –
4 | C[C@@H]1CN([C@H](c2ccc(-c3ccccc3C(=O)O)cc2)c2cccc(O)c2)[C@@H](C)CN1Cc1ccccc1 | 0.02 | – | 2.3 | – | –
5 | COc1cccc([C@@H](c2ccc3c(c2)CN(CC(=O)O)CC3)N2C[C@@H](C)N(Cc3ccccc3)C[C@@H]2C)c1 | 2 | 1260 | 2.5 | 5010 | Vd [4]: 5.4 L/kg; IC50 [5]: 5.01 nM; clearance [6]: 17 mL/min/kg; bioavailability [7]: 20%
6 | COc1cccc([C@@H](c2ccc3c(c2)CN(CC(=O)O)C3)N2C[C@@H](C)N(Cc3ccccc3)C[C@@H]2C)c1 | 25.1 | – | – | – | –
7 | C[C@@H]1CN([C@H](c2ccc(CCC(=O)O)cc2)c2cccc(O)c2)[C@@H](C)CN1Cc1ccccc1 | 0.126 | – | 2.1 | – | Activity (Mus musculus [8]): Active
8 | C[C@@H]1CN([C@@H](c2cccc(O)c2)c2ccc3c(c2)CN(CC(=O)O)C3)[C@@H](C)CN1Cc1ccccc1 | 0.501 | 1260 | – | 126 | –
9 | C[C@@H]1CN([C@@H](c2cccc(O)c2)c2ccc3c(c2)CN(CCC(=O)O)CC3)[C@@H](C)CN1Cc1ccccc1 | 0.00501 | 5010 | 2.1 | 1000 | –
10 | C[C@@H]1CN([C@@H](c2cccc(F)c2)c2ccc3c(c2)CN(C(=O)CC(=O)O)CC3)[C@@H](C)CN1Cc1ccccc1 | 20 | – | – | – | –
11 | C[C@@H]1CN([C@@H](c2cccc(O)c2)c2ccc3c(c2)CN(C(=O)CC(=O)O)CC3)[C@@H](C)CN1Cc1ccccc1 | 0.001 | 398 | 0.4 | 200 | –
12 | C=CCN1C[C@H](C)N([C@H](c2ccc(C(=O)N(CC)CC)cc2)c2cccc(O)c2)C[C@H]1C | 0.631 | – | – | – | –
13 | COc1cccc([C@@H](c2ccc3c(c2)CN(C(=O)CC(=O)O)CC3)N2C[C@@H](C)N(Cc3ccccc3)C[C@@H]2C)c1 | 15.8 | – | 1.3 | – | –
14 | C[C@@H]1CN([C@H](c2ccc(CC(=O)O)cc2)c2cccc(O)c2)[C@@H](C)CN1Cc1ccccc1 | 0.158 | – | 1.1 | – | Activity (Mus musculus [9]): Active
15 | C[C@@H]1CN([C@@H](c2cccc(O)c2)c2ccc3c(c2)CN(C(=O)c2ccccc2C(=O)O)C3)[C@@H](C)CN1Cc1ccccc1 | 0.316 | 3980 | – | 50.1 | –
16 | C=CCN1C[C@H](C)N([C@H](c2ccc(C(=O)N(CC)CC)cc2)c2cccc(OC)c2)C[C@H]1C [SNC-80] | – | 1260 | – | > 10000 | Activity (Mus musculus [10]): Active
17 | C[C@@H]1CN([C@@H](c2cccc(O)c2)c2ccc3c(c2)CN(CCC(=O)O)C3)[C@@H](C)CN1Cc1ccccc1 | 1 | 7940 | – | 631 | –
18 | C[C@@H]1CN([C@@H](c2cccc(F)c2)c2ccc3c(c2)CN(CCC(=O)O)CC3)[C@@H](C)CN1Cc1ccccc1 | 100 | – | – | – | –
19 | C[C@@H]1CN([C@@H](c2ccccc2)c2ccc3c(c2)CN(CCC(=O)O)C3)[C@@H](C)CN1Cc1ccccc1 | 63.1 | – | – | – | –
20 | COc1cccc([C@@H](c2ccc3c(c2)CN(CCC(=O)O)C3)N2C[C@@H](C)N(Cc3ccccc3)C[C@@H]2C)c1 | 631 | > 10000 | – | > 10000 | –
21 | C[C@@H]1CN([C@@H](c2cccc(O)c2)c2ccc3c(c2)CN(CC(=O)O)CC3)[C@@H](C)CN1Cc1ccccc1 | 0.0398 | 1000 | 2.1 | 316 | –
22 | C[C@@H]1CN([C@@H](c2cccc(O)c2)c2ccc3c(c2)CN(C(=O)C(=O)O)CC3)[C@@H](C)CN1Cc1ccccc1 | 0.00158 | 398 | 1.6 | 200 | –
23 | C[C@@H]1CN([C@@H](c2cccc(O)c2)c2ccc3c(c2)CN(C(=O)c2cccc(C(=O)O)c2)C3)[C@@H](C)CN1Cc1ccccc1 | 1.58 | 1260 | – | 100 | –
